Values after ≈ are worked out from the molar mass of the structure shown. Values joined by “and” are separate entries in the source; they are usually repeats but may differ in a detail not shown here. Equal values may be shown once. Read-outs that look alike come from different tables or passages of the source.
Key:
[1] = test system: M. avium clinical isolate Koav 11 (GyrA Asp95Tyr); type: cell-based, M. avium subsp. hominissuis
[2] = test system: M. avium clinical isolate Koav 21 (WT); assay: microbe, parasite or virus in culture; type: cell-based; settings: Mycobacterium avium
[3] = test system: M. avium clinical isolate Koav 19 (WT); assay: microbe, parasite or virus in culture; type: cell-based; settings: Mycobacterium avium
[4] = test system: M. avium clinical isolate Koav 1 (WT); assay: microbe, parasite or virus in culture; type: cell-based; settings: Koav 1 (K 1), WT; for MIC: Mycobacterium avium
[5] = test system: M. avium clinical isolate Koav 1 (WT); assay: microbe, parasite or virus in culture; type: cell-based; settings: Mycobacterium avium
[6] = test system: M. avium clinical isolate Koav 19 (WT); assay: microbe, parasite or virus in culture; type: cell-based; settings: Koav 19 (K 19), WT
[7] = test system: M. avium clinical isolate Koav 3 (GyrA Asp95Gly); type: cell-based, M. avium subsp. hominissuis
[8] = test system: M. avium clinical isolate Koav 2 (WT); assay: microbe, parasite or virus in culture; type: cell-based; settings: Koav 2 (K 2), WT; for MIC: Mycobacterium avium
[9] = test system: M. avium clinical isolates; type: cell-based, M. avium subsp. hominissuis; settings: for range of mean FICIms: over isolates, WQ-3810 and MXF together
[10] = test system: M. avium clinical isolates; type: cell-based, M. avium subsp. hominissuis
[11] = test system: M. avium clinical isolate Cl-A-2 (GyrA Asp95Tyr); type: cell-based, M. avium subsp. hominissuis
[12] = test system: M. avium clinical isolate Koav 11 (GyrA Asp95Tyr); type: cell-based, M. avium subsp. hominissuis; remark: listed apart in the source
[13] = test system: M. avium clinical isolate Koav 21 (WT); assay: microbe, parasite or virus in culture; type: cell-based; settings: Koav 21 (K 21), WT; for MIC: Mycobacterium avium
[14] = test system: M. avium clinical isolate Koav 13 (GyrA Asp95Gly); type: cell-based, M. avium subsp. hominissuis
[15] = test system: M. avium clinical isolate Koav 2 (WT); assay: microbe, parasite or virus in culture; type: cell-based; settings: Mycobacterium avium, drug alone, day 14
[16] = test system: M. avium clinical isolate Koav 3 (GyrA Asp95Gly); type: cell-based, M. avium subsp. hominissuis; remark: listed apart in the source
[17] = test system: M. avium clinical isolate Cl-A-2 (GyrA Asp95Tyr); type: cell-based, M. avium subsp. hominissuis; remark: listed apart in the source
[18] = test system: M. avium clinical isolate Koav 15 (WT); assay: microbe, parasite or virus in culture; type: cell-based; settings: Mycobacterium avium
[19] = test system: M. avium clinical isolate Koav 25 (WT); assay: microbe, parasite or virus in culture; type: cell-based; settings: Koav 25 (K 25), WT; for MIC: Mycobacterium avium
[20] = test system: M. avium clinical isolate Koav 13 (GyrA Asp95Gly); type: cell-based, M. avium subsp. hominissuis; remark: listed apart in the source
[21] = test system: M. avium clinical isolate Koav 20 (WT); assay: microbe, parasite or virus in culture; type: cell-based; settings: Mycobacterium avium
[22] = test system: M. avium clinical isolate Koav 15 (WT); assay: microbe, parasite or virus in culture; type: cell-based; settings: Koav 15 (K 15), WT
[23] = test system: M. avium clinical isolate Koav 25 (WT); assay: microbe, parasite or virus in culture; type: cell-based; settings: Mycobacterium avium
[24] = drug alone, day 14, read-out: MIC
[25] = checkerboard, single replicates
[26] = checkerboard (with 1 µg/ml INH), read-out: MIC of FQ with INH
[27] = checkerboard, single replicates, read-out: MIC of drug alone
[28] = Mycobacterium avium, checkerboard, single replicates, read-out: MIC of drug alone
[29] = checkerboard (S2: with 1 µg/ml EMB), read-out: MIC of FQ with EMB
[30] = FQ-resistant isolates, MIC assay

For `Cc1c(N2CC(N(C)C)C2)c(F)cc2c(=O)c(C(=O)O)cn(-c3nc(N)c(F)cc3F)c12` [WQ-3810], the “MIC of FQ with EMB” value [1] was 2 µg/mL, the “MIC of FQ with INH” value [1] was 1 µg/mL and 0.5 µg/mL and the “MIC of drug alone” value [1] was 4 µg/mL. The “mean FICIm” value [1] was 0.46 and 0.83, the MIC [2, 24] was 1 µg/mL (≈ 2.24 µM) and the MIC ([2]; read-out: MIC with 1 µg/mL EMB) was 1 µg/mL (≈ 2.24 µM). The MIC ([2]; read-out: MIC with 1 µg/mL INH) was 1 µg/mL (≈ 2.24 µM), the MIC [3, 24] was 0.5 µg/mL (≈ 1.12 µM) and the MIC ([3]; read-out: MIC with 1 µg/mL EMB) was 0.25 µg/mL (≈ 0.559 µM). The MIC ([3]; read-out: MIC with 1 µg/mL INH) was 0.13 µg/mL (≈ 0.291 µM), the “mean FICIm” value ([4]; FQ with EMB) was 0.62 and the “mean FICIm” value ([4]; FQ with INH) was 0.45. The FICIm ([4]; FQ+EMB, single replicates) was 0.625 and 0.5 and 0.75, the FICIm ([4]; FQ+INH, single replicates) was 0.5 and 0.375 and the “MIC of drug alone” value [4, 25] was 0.25 µg/mL. For the same molecule, the MIC [4, 26] was 0.0312 µg/mL, the MIC [4, 27] was 0.125 µg/mL and the MIC [5, 24] was 0.125 µg/mL (≈ 0.279 µM). The MIC ([5]; read-out: MIC with 1 µg/mL EMB) was 0.01 µg/mL (≈ 0.0224 µM), the MIC ([5]; read-out: MIC with 1 µg/mL INH) was 0.03 µg/mL (≈ 0.0671 µM) and the “mean FICIm” value ([6]; FQ with EMB) was 0.85. The “mean FICIm” value ([6]; FQ with INH) was 0.45 and 0.46, the FICIm ([6]; FQ+EMB, single replicates) was 1 and 0.625 and the FICIm ([6]; FQ+INH, single replicates) was 0.5312 and 0.5 and 0.375. The “MIC of drug alone” value [6, 25] was 0.5 µg/mL, the MIC [6, 28] was 0.25 µg/mL and the FICIm [7] was 0.75. The “MIC of FQ with EMB” value [7] was 1 µg/mL and 2 µg/mL, the “MIC of FQ with INH” value [7] was 1 µg/mL and 2 µg/mL and the “MIC of drug alone” value [7] was 4 µg/mL. The “mean FICIm” value [7] was 0.71 and 0.75, the “mean FICIm” value ([8]; FQ with EMB) was 0.91 and the “mean FICIm” value ([8]; FQ with INH) was 0.25. The FICIm ([8]; FQ+EMB, single replicates) was 0.75 and 1, the FICIm ([8]; FQ+INH, single replicates) was 0.25 and the “MIC of FQ with EMB” value ([8]; checkerboard (S2: with 1 µg/ml EMB)) was 0.25 µg/mL. It also gave an MIC [8, 29] of 0.125 µg/mL, an MIC [8, 26] of 0.0625 µg/mL and an MIC [8, 27] of 0.5 µg/mL. The interaction ([9]; in combination with EMB, mean FICIm between 0.5 and 1 additive) was “additive”, the interaction ([9]; in combination with INH, FICIm ≤ 0.5 regarded as synergistic) was “synergistic” and the “range of mean FICIms” value ([9]; with EMB) was 0.41 to 0.91. For the same molecule, the “range of mean FICIms” value ([9]; with INH) was 0.19 to 0.71, the MIC range [10] was 4 to 8 µg/mL and the “higher antimicrobial activity than CIP” value [10, 30] was 4 to 8 fold. For the same molecule, the “higher antimicrobial activity than LVX” value [10, 30] was 2 to 16 fold, the “higher antimicrobial activity than MXF” value [10, 30] was 2 to 4 fold and the MIC range ([10]; WT isolates) was 0.125 to 1 µg/mL. The MIC [11] was 4 µg/mL (≈ 8.94 µM), the “MIC with 1 µg/mL EMB” value [11] was 1 (×0.25) µg/mL and the “MIC with 1 µg/mL INH” value [11] was 1(×0.25) µg/mL. The MIC [12] was 4 µg/mL (≈ 8.94 µM), the “MIC with 1 µg/mL EMB” value [12] was 4 (×1) µg/mL and the “MIC with 1 µg/mL INH” value [12] was 4 (×1) µg/mL. For the same molecule, the “mean FICIm” value ([13]; FQ with EMB) was 0.75, the “mean FICIm” value ([13]; FQ with INH) was 0.41 and the FICIm ([13]; FQ+EMB, single replicates) was 0.75. The FICIm ([13]; FQ+INH, single replicates) was 0.375 and 0.5312, the “MIC of FQ with INH” value ([13]; checkerboard (with 1 µg/ml INH)) was 1 µg/mL and the MIC [13, 29] was 0.5 µg/mL. For the same molecule, the MIC [13, 26] was 0.5 µg/mL, the MIC [13, 27] was 2 µg/mL and the “MIC of FQ with EMB” value [14] was 4 µg/mL and 2 µg/mL. The “MIC of drug alone” value [14] was 8 µg/mL and 4 µg/mL, the MIC [15] was 0.5 µg/mL (≈ 1.12 µM) and the MIC [16] was 4 µg/mL (≈ 8.94 µM). The “MIC with 1 µg/mL EMB” value [16] was 4 (×1) µg/mL, the “MIC with 1 µg/mL INH” value [16] was 2 (×0.5) µg/mL and the “MIC of FQ with EMB” value [17] was 1 µg/mL and 0.5 µg/mL. The “MIC of FQ with INH” value [17] was 0.5 µg/mL and 0.25 µg/mL, the “mean FICIm” value [17] was 0.53 and 0.66 and the MIC [18, 24] was 1 µg/mL (≈ 2.24 µM). The MIC ([18]; read-out: MIC with 1 µg/mL EMB) was 1 µg/mL (≈ 2.24 µM), the MIC ([18]; read-out: MIC with 1 µg/mL INH) was 1 µg/mL (≈ 2.24 µM) and the “mean FICIm” value ([19]; FQ with EMB) was 0.75. The “mean FICIm” value ([19]; FQ with INH) was 0.39, the FICIm ([19]; FQ+EMB, single replicates) was 0.75 and the FICIm ([19]; FQ+INH, single replicates) was 0.5 and 0.375 and 0.3125. The “FIC of FQ” value ([19]; pair with EMB) was 0.25 µg/mL, the MIC [19, 29] was 0.25 µg/mL and the MIC [19, 27] was 1 µg/mL. For the same molecule, the MIC [20] was 8 µg/mL (≈ 17.9 µM), the “MIC with 1 µg/mL EMB” value [20] was 4 (×0.5) µg/mL and the “MIC with 1 µg/mL INH” value [20] was 4 (×0.5) µg/mL. It also gave an MIC [21, 24] of 0.125 µg/mL (≈ 0.279 µM), an MIC ([21]; read-out: MIC with 1 µg/mL EMB) of 0.13 µg/mL (≈ 0.291 µM) and an MIC ([21]; read-out: MIC with 1 µg/mL INH) of 0.13 µg/mL (≈ 0.291 µM). The “mean FICIm” value ([22]; FQ with EMB) was 0.71, the “mean FICIm” value ([22]; FQ with INH) was 0.33 and the FICIm ([22]; FQ+EMB, single replicates) was 0.75 and 0.625. The FICIm ([22]; FQ+INH, single replicates) was 0.25 and 0.5 and 0.2812, the MIC [22, 28] was 1 µg/mL and the MIC [23, 24] was 1 µg/mL (≈ 2.24 µM). For the same molecule, the MIC ([23]; read-out: MIC with 1 µg/mL EMB) was 0.5 µg/mL (≈ 1.12 µM) and the MIC ([23]; read-out: MIC with 1 µg/mL INH) was 0.5 µg/mL (≈ 1.12 µM).
